Where two headings read alike, the source gives them in different places. Residues, ends and D or L forms follow the SMILES beside them. *: point of attachment. Palmitoyl = CCCCCCCCCCCCCCCC(=O)*
Tests used:
[1] = test system: pilocarpine-induced sweating, C57BL6/Rcc male mice; assay: Antiperspirant effect, chronic administration, pilocarpine-induced sweating mouse model; type: in vivo; conditions: during 4 weeks treatment, 100 μg/paw
Experimental: This example evaluated chronic effects of peptide of invention SEQ ID NO: 1 pamitoylated form, in an in vivo sweating model. This model was established using pilocarpine, a non-selective agonist of muscarinic receptors, in 11-weeks old C57BL6/Rcc male mice. Test compound was locally administered three times per week for 4 weeks (Treatment). Sweat was induced by intraplantar (i.pl) injection of pilocarpine (3 μg/paw) in the right hind paw (Sweating) once on weeks 1, 2 and 4 according to table H.
Test compound was injected i.pl. on the right hind paw (1, 10 and 100 μg), and vehicle was saline solution.
Sweating was monitored through amylase activity detection on skin surface using iodine/starch reaction. Dark sweating drops were quantified after 5 minutes induction counting number of drops per paw in each condition. Sample n=5-6 individuals per group. Data are expressed as mean #standard error of the mean (SEM). Raw data was normalized as percentage respect to non-injected stimulated individuals (control, 100%). Statistical analysis was one-way ANOVA followed by Dunnett's post-hoc multiple comparison test comparing each condition with the corresponding control group, ****p<0.0001 ***p<0.001 **p<0.01, *p<0.05

[2] = test system: pilocarpine-induced sweating, C57BL6/Rcc male mice; conditions: acute, at 10, 30 and 100 μg
Experimental: Test compound was injected intraplantar (i.pl.) on the right hind paw (10, 30 and 100 μg) 30 min before sweating stimulation. Vehicle was saline solution.
Sweating was monitored through amylase activity detection on skin surface using iodine/starch reaction. Dark sweating drops were quantified after 5 minutes induction counting number of drops per paw in each condition. Sample n=5-6 individuals per group. Data are expressed as mean±standard error of the mean (SEM). Raw data was normalized as percentage respect to non-injected stimulated individuals (Control, 100%) and saline-injected non-stimulated individuals (Vehicle, 0%). Statistical analysis was one-way ANOVA followed by Dunnett's post-hoc multiple comparison test comparing each condition with the corresponding control group, ****p<0.0001 ***p<0.001 **p<0.01, *p<0.05

[3] = test system: acetylcholine release, human neuroblastoma cell line differentiated to cholinergic neuronal phenotype; assay: Inhibition of KCl-induced acetylcholine release in a neuroblastoma cell line (Amplex Red); type: cell-based; conditions: 50 mM KCl
Experimental: To determine the compound of the invention effects on acetylcholine release, a human neuroblastoma cell line (50.000 cells/well) was used. Cells were differentiated to cholinergic neuronal phenotype for 4 days. Then, cells were pre-incubated for 60 minutes with the compounds (between 0.1 and 100 μM) as acetyl- or palmitoyl-form and conjugated with trifluoroacetate (TFA) or acetate salt. Afterwards, acetylcholine release was induced by membrane depolarization evoked by 15 minutes incubation with 50 mM KCl. Acetylcholine level in supernatants was quantified by using Amplex® Red Acetylcholine Assay Kit (Thermofisher) following manufacturer's instructions. […] Fluorescence (Ex 530 nm/Em 590 nm) was measured in FluorStar equipment. Acetylcholine content was normalized to the total protein content using BCA assay (Pierce) following manufacturer's instructions. Fluorescence measurements were normalized to the maximum signal detected with KCl stimulation in vehicle treated cells. Vesicle exocytosis disruption by the compounds of the invention lead to a decrease of acetylcholine release (Table E).

[4] = test system: TRPV1-mediated excitability of sensory neurons (neonatal rat dorsal root ganglia); assay: In vitro functional assay for neuronal sensitization (microelectrode array, capsaicin pulses); type: cell-based, Wistar rats; conditions: for % Sensitization inhibition: incubated 1 hour, 100 - ratio P3/P1
Experimental: Isolated neonatal rat dorsal root ganglia from Wistar rats (3-5 days-old) were seeded microelectrode array chips in DMEM Glutamax, 10% FBS, 1% P/S supplemented with murine NGF. All experiments were performed after 48 h cell seeding.
Sensory neurons were sensitized by acute exposure to pro-inflammatory cocktail with bradykinin, histamine and ATP. TRPV1-mediated excitability was analyzed as stinging, burning and itching sensations are mainly driven by TRPV1. Repetitive application of TRPV1-agonist capsaicin (15 s-application 500 nM) allowed first activation (P1) followed by desensitization (second application). Desensitized cultures were sensitized with the cocktail to recover excitability, using external solution between the second (P2) and the third (P3) capsaicin pulse (8 min). To confirm cell viability 40 mM KCl was applied at the end. Test compound was incubated 1 hour before monitoring at 0.1, 1 and 10 µM. Test compound is the peptide having the following sequence (SEQ ID NO: 1): Palm-HYWRELQYR-NH2
Sensitization was calculated as ratio between P3 and P1 capsaicin pulse (ratio P3/P1), representing sensitized response induced by the pro-inflammatory cocktail. Inhibition percentage was calculated as 100-Sensitization. Data are expressed as mean±standard error of the mean (SEM), Statistical analysis was one-way ANOVA followed by Dunnett's post-hoc multiple comparison test comparing each condition with the corresponding sensitization control group, ****p<0.0001 ***p<0.001 **p<0.01, *p<0.05

[5] = test system: CGRP induced-release on peptidergic sensory neurons (dorsal root ganglia); assay: Inhibition of capsaicin-induced CGRP release on cultured sensory neurons (CGRP EIA); type: cell-based; conditions: 1 hour, 1 μM capsaicin 10 min
Experimental: The induction of the release of calcitonin-gene related peptide (CGRP) with capsaicin enables direct measurement of neuronal exocytosis (Meng J. et al., J. Cell. Sci. (2007) 15; 120(Pt 16):2864-74, and Meng J. et al., Mol. Neurobiol. (2014); 50(2):574-88).
The tested peptides were evaluated by measuring their capability of inhibiting CGRP induced-release on peptidergic sensory neurons. Dorsal root ganglia were seeded (50.000 cells/well) in a 96-well plate previously coated with poly-L-lysine and laminin. After 48 hours seeding, cells were incubated with Hank's Balanced salt solution containing peptides of invention at 20, 50 or 100 μM for 1 hour. Next, cells were stimulated for 10 min with 1 μM capsaicin at 37° C. Then, CGRP content was determined in supernatants using colorimetric based CGRP EIA (Spi-Bio Inc) following manufacturer's instructions. Absorbance measurements (405 nm) were standardized with regard to the maximum signal detected with capsaicin stimulation in vehicle treated cells. Inhibition values of CGRP release were calculated as percentages by considering maximum signal to capsaicin-induced release and minimum as non-stimulated cells. Table D details inhibition values of […] obtained for the peptides of invention.

[6] = test system: human dermal fibroblasts (HDFa); assay: MTT cell viability assay on dermal fibroblasts; type: cell-based; conditions: for % inhibition cell viability: HDFa, 24 hours
Experimental: (§1) This example evaluated effects of the peptides of invention on human epidermal keratinocytes and dermal fibroblasts. Cell viability was determined with the 3-(4,5-dimethyl-2-thiazolyl)-2,5-diphenyl-2H-tetrazolium bromide (MTT) assay. The MTT assay is a colorimetric reaction based on the capacity of the mitochondrial dehydrogenase enzyme to break and transform the tetrazolium rings of MTT. Epidermal keratinocytes (HEKa) were seeded in a previously coated 96 well-plate at 50-60% confluence in 100 μL of supplemented corresponding medium. Dermal fibroblasts (HDFa) were seeded in a 96 well-plate at 70% confluence in 100 μL supplemented medium. For both cell lines, 24 hours after seeding, medium was replaced by fresh supplemented medium containing peptides dissolved at concentration range between 0.1 and 200 μM. All test substances were incubated for 24 hours at 37° C. and 5% CO2. Afterwards, medium was replaced by 0.5 mg/ml of MTT solution for 4 hours in complete medium. Then, medium was carefully removed and 150 μL/well of DMSO were added to solubilize formazan crystals. Plate was protected from light, shaken for 60 seconds and optical density was measured at 570 nm with a reference filter of 620 nm. Table F details effects of peptides of invention on keratinocytes and fibroblasts cell viability expressed as percentage of inhibition.

[7] = test system: human epidermal keratinocytes (HEKa); assay: MTT cell viability assay on epidermal keratinocytes; type: cell-based; conditions: for % inhibition cell viability: HEKa, 24 hours
Experimental: as §1

Compound	% Ach release inhibition ([3]; Acetate salt, 0.1 μM)	% Ach release inhibition ([3]; Acetate salt, 1 μM)	% Ach release inhibition ([3]; Acetate salt, 10 μM)	% Ach release inhibition ([3]; TFA salt, 10 μM)	% Ach release inhibition ([3]; TFA salt, 50 μM)	% CGRP release inhibition ([5]; peptide 20 μM)	% CGRP release inhibition ([5]; peptide 100 μM)	% inhibition cell viability ([6]; 1 μM)	% inhibition cell viability ([6]; 5 μM)	% inhibition cell viability ([6]; 10 μM)	% inhibition cell viability ([6]; 50 μM)	% inhibition cell viability ([6]; 100 μM)	% inhibition cell viability ([6]; 200 μM)	% Ach release inhibition ([3]; TFA salt, 100 μM)	% inhibition cell viability ([7]; 1 μM)	% inhibition cell viability ([7]; 5 μM)	% inhibition cell viability ([7]; 10 μM)	% inhibition cell viability ([7]; 50 μM)	% inhibition cell viability ([7]; 100 μM)	% inhibition cell viability ([7]; 200 μM)	further results
CCCCCCCCCCCCCCCC(=O)N[C@@H](Cc1c[nH]cn1)C(=O)N[C@@H](Cc1ccc(O)cc1)C(=O)N[C@@H](Cc1c[nH]c2ccccc12)C(=O)N[C@@H](CCCNC(=N)N)C(=O)N[C@@H](CCC(=O)O)C(=O)N[C@@H](CC(C)C)C(=O)N[C@@H](CCC(N)=O)C(=O)N[C@@H](Cc1ccc(O)cc1)C(=O)N[C@@H](CCCNC(=N)N)C(N)=O [SEQ ID NO: 1 palmitoyl, Palm-HYWRELQYR-NH2] (Palmitoyl-HYWRELQYR-NH2)	42.9%	81.3%	87.5%	49.4%	75.9%	–	–	–	–	–	–	–	–	–	–	–	–	–	–	–	effect on sweating (in words) [1]: significant sweating inhibition; effect on sweating (in words) [2]: significantly reduced sweating; % Ach release inhibition ([3]; TFA salt, 5 μM): 7.9%; % Sensitization inhibition ([4]; 0.1 μM): 69.7%; % Sensitization inhibition ([4]; 1 μM): 51.2%; % Sensitization inhibition ([4]; 10 μM): 59.7%; effect on sensitization process (in words) ([4]; at the three concentration (0.1, 1 and 10 µM)): significantly inhibited sensitization process with similar efficacy
Ac-LRVQMVNMFL-NH2 [SEQ ID NO: 4 acetyl, LRVQMVNMFL]	around 40%	–	–	84.3%	58.9%	14.2%	77.4%	14.5%	28.4%	37.1%	40.6%	41.5%	22.9%	6.8%	13.6%	2.6%	6.0%	19.5%	31.6%	41.1%	effect on keratinocyte viability (in words) ([7]; assessed below 50 μM): did not modify keratinocyte viability
Ac-HYWRELQYR-NH2 [SEQ ID NO: 1 acetyl, HYWRELQYR]	–	27.9%	55.9%	87.9%	33.6%	10.1%	39.1%	0.2%	9.7%	33%	3.9%	6.8%	2.9%	65.9%	−1.4%	8.8%	1.7%	7.4%	6.2%	9.5%	effect on cell viability (in words) ([6]; dermal fibroblast, up to 200 μM): did not modify cell viability; effect on cell viability (in words) ([7]; human epidermal keratinocytes, up to 200 μM): did not modify cell viability
